Test results as given in PMC6637423 (Organic & biomolecular chemistry, 2019).

Tests used:
C57BL/6J mice [1] = test: Respiration rate, Oxymax/CLAMS assay; details: morphine 30 mg/kg, i.p., positive control
C57BL/6J mice [2] = test: 55°C warm-water tail-withdrawal assay after i.c.v. administration; assay type: in vivo, mouse; details: 1 nmol i.c.v., summed over 90 min
C57BL/6J mice [3] = test: 55°C warm-water tail-withdrawal assay after oral; assay type: in vivo, mouse; details: morphine 5 mg/kg, p.o.

With `CN1CC[C@]23c4c5ccc(O)c4O[C@H]2[C@@H](O)C=C[C@H]3[C@H]1C5` [Morphine] the “Respiratory effect versus vehicle” value (C57BL/6J mice [1]) was “suppressed respiration up to an hour”, the “Screening: summed tail-withdrawal latency versus vehicle” value (C57BL/6J mice [2]) was “withdrawal latencies equivalent to vehicle treated animals” and the “Antinociception after oral administration versus vehicle” value (C57BL/6J mice [3]) was “significantly higher antinociceptive effects compared to vehicle treated animals”.
